{"source": "paper PMC5428509", "about": "“Irreversible inhibition of BTK kinase by a novel highly selective inhibitor CHMFL-BTK-11 suppresses inflammatory response in rheumatoid arthritis model” (Scientific Reports, 2017)", "experiment_in_all_cases": "biochemical", "set-up_in_all_cases": "KinomeScan competition binding panel (DiscoveRx), percent of control at 1 uM", "details_in_all_cases": "read-out: Percent Control", "key": {"ERN1": {"biological_target": "ERN1 (Homo sapiens, UniProt O75460)", "in_short": "(§1)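 Selectivity profiled across 456 kinases/mutants by KinomeScan binding technology.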"}, "DRAK2": {"biological_target": "T1, DRAK2 (Homo sapiens, UniProt O94768)", "T1 construct": "gene STK17B", "in_short": "as §1"}, "CDK4-cyclinD1": {"biological_target": "T2, CDK4-cyclinD1 (Homo sapiens, UniProt P11802)", "T2 construct": "cyclinD1", "in_short": "as §1"}, "OSR1": {"biological_target": "T3, OSR1 (Homo sapiens, UniProt O95747)", "T3 construct": "gene OXSR1", "in_short": "as §1"}, "[1]": {"biological_target": "T4, ABL1(Q252H)-phosphorylated (Homo sapiens, UniProt P00519, Q252H)", "T4 construct": "phosphorylated", "in_short": "as §1"}, "DCAMKL1": {"biological_target": "T5, DCAMKL1 (Homo sapiens, UniProt O15075)", "T5 construct": "gene DCLK1", "in_short": "as §1"}, "ACVR1B": {"biological_target": "ACVR1B (Homo sapiens, UniProt P36896)", "in_short": "as §1"}, "JNK3": {"biological_target": "T6, JNK3 (Homo sapiens, UniProt P53779)", "T6 construct": "gene MAPK10", "T6 sequence (P53779 whole entry)": "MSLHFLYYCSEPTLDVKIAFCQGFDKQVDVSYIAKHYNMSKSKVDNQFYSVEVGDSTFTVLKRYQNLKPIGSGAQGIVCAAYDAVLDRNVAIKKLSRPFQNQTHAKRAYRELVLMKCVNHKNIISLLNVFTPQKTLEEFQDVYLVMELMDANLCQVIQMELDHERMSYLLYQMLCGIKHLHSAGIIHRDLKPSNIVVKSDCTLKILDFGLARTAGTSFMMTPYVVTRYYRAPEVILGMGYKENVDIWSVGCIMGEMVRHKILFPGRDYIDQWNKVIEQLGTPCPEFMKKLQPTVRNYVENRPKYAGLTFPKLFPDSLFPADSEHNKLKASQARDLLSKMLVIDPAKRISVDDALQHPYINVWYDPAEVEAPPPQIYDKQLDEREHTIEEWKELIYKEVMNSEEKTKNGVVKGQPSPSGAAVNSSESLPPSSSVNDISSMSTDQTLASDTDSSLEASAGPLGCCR", "in_short": "as §1"}, "CDC2L1": {"biological_target": "T7, CDC2L1 (Homo sapiens, UniProt P21127)", "T7 construct": "gene CDK11B", "T7 sequence (P21127 whole entry)": "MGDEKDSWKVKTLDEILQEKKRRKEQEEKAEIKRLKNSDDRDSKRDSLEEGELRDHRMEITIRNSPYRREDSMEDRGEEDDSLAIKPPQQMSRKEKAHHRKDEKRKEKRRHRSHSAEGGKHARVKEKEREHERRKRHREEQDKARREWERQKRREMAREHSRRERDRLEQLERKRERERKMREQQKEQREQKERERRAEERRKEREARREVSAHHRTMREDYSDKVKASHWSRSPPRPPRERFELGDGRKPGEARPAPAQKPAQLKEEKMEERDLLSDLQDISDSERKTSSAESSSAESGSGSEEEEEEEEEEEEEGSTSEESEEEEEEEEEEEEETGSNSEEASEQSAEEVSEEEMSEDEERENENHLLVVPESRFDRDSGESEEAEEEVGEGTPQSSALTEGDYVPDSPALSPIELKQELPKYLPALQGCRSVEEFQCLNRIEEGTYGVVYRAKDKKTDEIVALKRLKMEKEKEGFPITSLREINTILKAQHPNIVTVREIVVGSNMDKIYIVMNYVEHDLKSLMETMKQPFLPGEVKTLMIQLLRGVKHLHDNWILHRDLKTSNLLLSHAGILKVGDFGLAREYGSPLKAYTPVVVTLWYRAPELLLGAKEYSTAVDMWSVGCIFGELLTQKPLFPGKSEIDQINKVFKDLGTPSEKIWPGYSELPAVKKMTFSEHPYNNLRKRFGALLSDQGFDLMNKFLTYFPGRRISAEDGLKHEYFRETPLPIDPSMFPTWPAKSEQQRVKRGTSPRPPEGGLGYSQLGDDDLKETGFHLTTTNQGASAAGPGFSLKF", "in_short": "as §1"}, "FLT3-autoinhibited": {"biological_target": "FLT3-autoinhibited (Homo sapiens, UniProt P36888)", "in_short": "as §1"}, "NEK1": {"biological_target": "NEK1 (Homo sapiens, UniProt Q96PY6)", "sequence (Q96PY6 whole entry)": "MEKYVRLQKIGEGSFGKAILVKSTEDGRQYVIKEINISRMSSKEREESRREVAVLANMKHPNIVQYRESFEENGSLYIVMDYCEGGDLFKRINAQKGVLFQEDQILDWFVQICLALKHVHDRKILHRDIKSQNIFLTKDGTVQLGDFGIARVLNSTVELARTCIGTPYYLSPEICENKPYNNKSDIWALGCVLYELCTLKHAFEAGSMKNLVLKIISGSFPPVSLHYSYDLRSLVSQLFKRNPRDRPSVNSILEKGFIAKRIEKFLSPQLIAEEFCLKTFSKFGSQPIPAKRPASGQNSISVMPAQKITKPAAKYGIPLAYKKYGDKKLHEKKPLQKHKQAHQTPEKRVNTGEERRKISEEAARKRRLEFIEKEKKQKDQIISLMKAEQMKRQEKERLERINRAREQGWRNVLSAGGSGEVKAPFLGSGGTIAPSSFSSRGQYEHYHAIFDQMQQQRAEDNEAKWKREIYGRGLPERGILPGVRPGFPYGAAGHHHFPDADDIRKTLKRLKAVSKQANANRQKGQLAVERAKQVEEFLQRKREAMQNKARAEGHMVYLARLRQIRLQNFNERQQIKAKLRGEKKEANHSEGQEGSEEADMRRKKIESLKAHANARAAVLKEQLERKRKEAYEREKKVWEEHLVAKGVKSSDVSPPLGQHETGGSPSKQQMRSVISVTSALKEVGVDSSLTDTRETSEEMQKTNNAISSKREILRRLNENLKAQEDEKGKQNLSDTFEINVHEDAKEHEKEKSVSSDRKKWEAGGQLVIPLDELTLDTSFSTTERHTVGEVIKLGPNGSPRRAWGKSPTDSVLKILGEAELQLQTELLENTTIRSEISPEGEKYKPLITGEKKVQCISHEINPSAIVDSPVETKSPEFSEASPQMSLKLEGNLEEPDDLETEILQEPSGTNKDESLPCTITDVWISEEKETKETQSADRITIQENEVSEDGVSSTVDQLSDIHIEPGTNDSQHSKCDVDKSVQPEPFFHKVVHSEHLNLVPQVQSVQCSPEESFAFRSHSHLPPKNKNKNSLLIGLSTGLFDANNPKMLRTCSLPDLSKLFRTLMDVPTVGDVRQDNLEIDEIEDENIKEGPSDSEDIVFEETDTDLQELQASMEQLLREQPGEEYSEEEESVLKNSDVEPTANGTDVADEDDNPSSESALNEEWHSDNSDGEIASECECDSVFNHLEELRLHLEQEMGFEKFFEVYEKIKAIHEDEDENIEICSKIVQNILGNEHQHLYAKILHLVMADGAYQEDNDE", "in_short": "as §1"}, "MEK2": {"biological_target": "T8, MEK2 (Homo sapiens, UniProt P36507)", "T8 construct": "gene MAP2K2", "in_short": "as §1"}, "PRKR": {"biological_target": "T9, PRKR (Homo sapiens, UniProt P19525)", "T9 construct": "gene EIF2AK2", "T9 sequence (P19525 whole entry)": "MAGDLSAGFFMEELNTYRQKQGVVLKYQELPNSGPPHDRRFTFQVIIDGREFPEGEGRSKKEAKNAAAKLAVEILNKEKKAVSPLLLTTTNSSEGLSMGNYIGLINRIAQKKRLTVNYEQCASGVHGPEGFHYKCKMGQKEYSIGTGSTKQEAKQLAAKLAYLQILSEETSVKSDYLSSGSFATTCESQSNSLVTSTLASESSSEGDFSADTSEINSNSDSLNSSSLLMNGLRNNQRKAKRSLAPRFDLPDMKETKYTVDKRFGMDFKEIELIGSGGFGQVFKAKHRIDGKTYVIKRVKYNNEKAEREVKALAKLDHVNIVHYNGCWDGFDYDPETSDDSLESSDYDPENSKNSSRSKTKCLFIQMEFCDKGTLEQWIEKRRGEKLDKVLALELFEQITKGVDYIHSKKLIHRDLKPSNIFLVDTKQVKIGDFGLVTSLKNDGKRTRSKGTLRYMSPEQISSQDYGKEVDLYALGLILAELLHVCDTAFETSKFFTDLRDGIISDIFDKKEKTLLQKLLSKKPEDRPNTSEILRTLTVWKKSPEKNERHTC", "in_short": "as §1"}, "CDK5": {"biological_target": "CDK5 (Homo sapiens, UniProt Q00535)", "sequence (Q00535 whole entry)": "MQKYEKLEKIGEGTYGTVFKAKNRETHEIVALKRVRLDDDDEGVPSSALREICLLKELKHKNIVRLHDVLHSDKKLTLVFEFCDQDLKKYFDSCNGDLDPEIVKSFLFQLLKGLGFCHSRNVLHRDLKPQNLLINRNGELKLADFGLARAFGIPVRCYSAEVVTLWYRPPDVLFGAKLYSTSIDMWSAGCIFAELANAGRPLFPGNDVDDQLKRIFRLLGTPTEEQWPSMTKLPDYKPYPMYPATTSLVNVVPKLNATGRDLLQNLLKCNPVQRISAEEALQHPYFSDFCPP", "in_short": "as §1"}, "MST3": {"biological_target": "T10, MST3 (Homo sapiens, UniProt Q9Y6E0)", "T10 construct": "gene STK24", "T10 sequence (Q9Y6E0 whole entry)": "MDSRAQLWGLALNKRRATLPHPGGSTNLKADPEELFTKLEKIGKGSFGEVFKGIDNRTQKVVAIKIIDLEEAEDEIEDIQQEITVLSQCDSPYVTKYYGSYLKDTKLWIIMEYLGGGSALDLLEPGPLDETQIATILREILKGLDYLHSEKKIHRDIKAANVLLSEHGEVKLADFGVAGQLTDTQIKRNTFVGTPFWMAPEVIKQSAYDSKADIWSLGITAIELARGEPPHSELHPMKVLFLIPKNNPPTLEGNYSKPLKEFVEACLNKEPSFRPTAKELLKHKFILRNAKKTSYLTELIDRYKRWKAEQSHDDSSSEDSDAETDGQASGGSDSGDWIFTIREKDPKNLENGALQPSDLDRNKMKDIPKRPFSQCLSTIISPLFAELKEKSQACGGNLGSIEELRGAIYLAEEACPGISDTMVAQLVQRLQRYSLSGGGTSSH", "in_short": "as §1"}, "PRKG1": {"biological_target": "PRKG1 (Homo sapiens, UniProt Q13976)", "in_short": "as §1"}, "MEK5": {"biological_target": "T11, MEK5 (Homo sapiens, UniProt Q13163)", "T11 construct": "gene MAP2K5", "in_short": "as §1"}, "EPHA1": {"biological_target": "EPHA1 (Homo sapiens, UniProt P21709)", "in_short": "as §1"}, "EGFR": {"biological_target": "EGFR (Homo sapiens, UniProt P00533)", "in_short": "as §1"}, "ERK5": {"biological_target": "T12, ERK5 (Homo sapiens, UniProt Q13164)", "T12 construct": "gene MAPK7", "in_short": "as §1"}, "PAK4": {"biological_target": "PAK4 (Homo sapiens, UniProt O96013)", "sequence (O96013 whole entry)": "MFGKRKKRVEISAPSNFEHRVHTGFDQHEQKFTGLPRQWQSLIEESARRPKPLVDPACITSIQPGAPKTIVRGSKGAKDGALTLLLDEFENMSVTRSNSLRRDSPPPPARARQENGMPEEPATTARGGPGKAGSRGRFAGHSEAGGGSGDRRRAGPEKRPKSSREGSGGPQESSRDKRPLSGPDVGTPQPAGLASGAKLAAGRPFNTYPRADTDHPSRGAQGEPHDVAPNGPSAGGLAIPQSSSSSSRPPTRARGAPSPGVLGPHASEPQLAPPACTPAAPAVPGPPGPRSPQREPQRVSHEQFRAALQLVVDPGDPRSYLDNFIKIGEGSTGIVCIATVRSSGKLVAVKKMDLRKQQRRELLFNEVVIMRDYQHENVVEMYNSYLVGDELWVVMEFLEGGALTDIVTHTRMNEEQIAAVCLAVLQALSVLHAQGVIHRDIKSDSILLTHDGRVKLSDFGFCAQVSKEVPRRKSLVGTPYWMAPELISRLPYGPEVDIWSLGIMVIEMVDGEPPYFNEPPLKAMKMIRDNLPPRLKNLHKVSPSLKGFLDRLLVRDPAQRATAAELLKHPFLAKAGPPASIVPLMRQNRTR", "in_short": "as §1"}, "EGFR(E746-A750del)": {"biological_target": "EGFR(E746-A750del) (Homo sapiens, UniProt P00533, DEL746-750)", "in_short": "as §1"}, "CAMK2D": {"biological_target": "CAMK2D (Homo sapiens, UniProt Q13557)", "in_short": "as §1"}, "CLK3": {"biological_target": "CLK3 (Homo sapiens, UniProt P49761)", "sequence (P49761 whole entry)": "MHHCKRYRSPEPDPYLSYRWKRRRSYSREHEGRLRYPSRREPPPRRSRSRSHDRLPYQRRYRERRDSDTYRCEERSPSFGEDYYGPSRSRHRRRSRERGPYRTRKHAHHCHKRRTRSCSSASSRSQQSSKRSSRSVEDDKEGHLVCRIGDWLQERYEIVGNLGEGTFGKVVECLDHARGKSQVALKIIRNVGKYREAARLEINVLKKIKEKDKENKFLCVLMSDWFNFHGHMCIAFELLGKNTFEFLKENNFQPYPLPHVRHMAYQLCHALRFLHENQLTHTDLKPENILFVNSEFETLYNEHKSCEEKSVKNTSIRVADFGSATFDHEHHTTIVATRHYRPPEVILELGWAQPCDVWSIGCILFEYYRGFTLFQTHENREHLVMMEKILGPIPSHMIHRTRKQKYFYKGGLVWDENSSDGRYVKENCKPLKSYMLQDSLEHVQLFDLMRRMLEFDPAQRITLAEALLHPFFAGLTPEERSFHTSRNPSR", "in_short": "as §1"}, "MKK7": {"biological_target": "T13, MKK7 (Homo sapiens, UniProt O14733)", "T13 construct": "gene MAP2K7", "in_short": "as §1"}}}
{"smiles": "C=CC(=O)Nc1cc(-n2c(=O)ccc3cnc4ccc(-n5cccn5)cc4c32)ccc1C", "note": "[CHMFL-BTK-11]", "values": [{"measurement": "remaining binding at 1 µM", "setting": "ERN1", "result": 76, "unit": "%"}, {"measurement": "remaining binding at 1 µM", "setting": "DRAK2", "result": 95, "unit": "%"}, {"measurement": "remaining binding at 1 µM", "setting": "CDK4-cyclinD1", "result": 97, "unit": "%"}, {"measurement": "remaining binding at 1 µM", "setting": "OSR1", "result": 96, "unit": "%"}, {"measurement": "remaining binding at 1 µM", "setting": "[1]", "result": 100, "unit": "%"}, {"measurement": "remaining binding at 1 µM", "setting": "DCAMKL1", "result": 91, "unit": "%"}, {"measurement": "remaining binding at 1 µM", "setting": "ACVR1B", "result": 100, "unit": "%"}, {"measurement": "remaining binding at 1 µM", "setting": "JNK3", "result": 100, "unit": "%"}, {"measurement": "remaining binding at 1 µM", "setting": "CDC2L1", "result": 100, "unit": "%"}, {"measurement": "remaining binding at 1 µM", "setting": "FLT3-autoinhibited", "result": 100, "unit": "%"}, {"measurement": "remaining binding at 1 µM", "setting": "NEK1", "result": 82, "unit": "%"}, {"measurement": "remaining binding at 1 µM", "setting": "MEK2", "result": 92, "unit": "%"}, {"measurement": "remaining binding at 1 µM", "setting": "PRKR", "result": 80, "unit": "%"}, {"measurement": "remaining binding at 1 µM", "setting": "CDK5", "result": 100, "unit": "%"}, {"measurement": "remaining binding at 1 µM", "setting": "MST3", "result": 100, "unit": "%"}, {"measurement": "remaining binding at 1 µM", "setting": "PRKG1", "result": 100, "unit": "%"}, {"measurement": "remaining binding at 1 µM", "setting": "MEK5", "result": 80, "unit": "%"}, {"measurement": "remaining binding at 1 µM", "setting": "EPHA1", "result": 100, "unit": "%"}, {"measurement": "remaining binding at 1 µM", "setting": "EGFR", "result": 88, "unit": "%"}, {"measurement": "remaining binding at 1 µM", "setting": "ERK5", "result": 100, "unit": "%"}, {"measurement": "remaining binding at 1 µM", "setting": "PAK4", "result": 95, "unit": "%"}, {"measurement": "remaining binding at 1 µM", "setting": "EGFR(E746-A750del)", "result": 90, "unit": "%"}, {"measurement": "remaining binding at 1 µM", "setting": "CAMK2D", "result": 80, "unit": "%"}, {"measurement": "remaining binding at 1 µM", "setting": "CLK3", "result": 100, "unit": "%"}, {"measurement": "remaining binding at 1 µM", "setting": "MKK7", "result": 77, "unit": "%"}]}
